Columns and labels:
[1] = Inhibition of SARS-CoV 3CL protease using 2-aminobenzoyl-SVTLQSG-Tyr(NO2)-R as substrate; set-up: species or system Severe acute respiratory syndrome-related coronavirus
[2] = target: T1, Replicase polyprotein 1ab (Severe acute respiratory syndrome coronavirus 2, UniProt P0DTD1); experiment: Inhibition of SARS-CoV-2 3CL protease using 2-aminobenzoyl-SVTLQSG-Tyr(NO2)-R as substrate
[3] = target: Replicase polyprotein 1ab (Severe acute respiratory syndrome coronavirus 2) (UniProt P0DTD1); experiment: Inhibition of SARS-CoV-2 3CL protease at 100 uM relative to control
[4] = target: Cytochrome P450 2C9 (Homo sapiens, UniProt P11712); experiment: Inhibition of CYP2C9 (unknown origin); type: ADME
[5] = target: T2, Cytochrome P450 1A2 (Homo sapiens, UniProt P05177); experiment: Inhibition of CYP1A2 (unknown origin); type: ADME
T2 sequence (P05177 whole entry): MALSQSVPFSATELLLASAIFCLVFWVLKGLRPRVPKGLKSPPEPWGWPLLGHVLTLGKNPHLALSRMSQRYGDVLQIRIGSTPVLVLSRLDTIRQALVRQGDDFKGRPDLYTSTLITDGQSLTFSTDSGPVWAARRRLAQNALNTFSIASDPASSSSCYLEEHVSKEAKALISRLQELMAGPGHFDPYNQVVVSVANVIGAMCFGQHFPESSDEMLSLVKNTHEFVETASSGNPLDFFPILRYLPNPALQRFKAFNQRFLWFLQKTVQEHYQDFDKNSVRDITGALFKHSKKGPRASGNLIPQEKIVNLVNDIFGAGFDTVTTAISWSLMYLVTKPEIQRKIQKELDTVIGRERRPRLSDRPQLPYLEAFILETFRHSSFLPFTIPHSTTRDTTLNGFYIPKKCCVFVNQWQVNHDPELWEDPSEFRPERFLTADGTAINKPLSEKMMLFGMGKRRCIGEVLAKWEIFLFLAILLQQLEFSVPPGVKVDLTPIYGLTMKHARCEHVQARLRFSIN

[6] = Plasma protein binding in rat assessed as unbound fraction; type: ADME
[7] = target: Cytochrome P450 2D6 (Homo sapiens, UniProt P10635); experiment: Inhibition of CYP2D6 (unknown origin); type: ADME
[8] = Plasma protein binding in human assessed as unbound fraction; type: ADME
[9] = target: T1, Replicase polyprotein 1ab; experiment: Inhibition of SARS-CoV-2 3CL protease using Dabcyl-Leu-Ala-Gln-Ala-Val-Arg-Ser-Ser-Ser-Arg-Edans as substrate
[10] = target: Replicase polyprotein 1ab (Severe acute respiratory syndrome coronavirus 2) (UniProt P0DTD1); experiment: Inhibition of SARS-CoV-2 3CL protease assessed as ratio of Kinact/Ki
[11] = target: Cytochrome P450 3A4 (Homo sapiens, UniProt P08684); experiment: Inhibition of CYP3A4 (unknown origin); type: ADME
[12] = target: T1, Replicase polyprotein 1ab; experiment: Inhibition of N terminal his tagged SARS-CoV-2 3CL protease by FRET assay
[13] = target: T1, Replicase polyprotein 1ab; experiment: Inhibition of SARS-CoV-2 3CL protease by FRET assay
[14] = target: T1, Replicase polyprotein 1ab; experiment: Inhibition of SARS-CoV-2 3CL protease using Dabcyl-KTSAVLQSGFRKME-Edans as substrate assessed as inhibition constant by flurogenic assay

Chain of Cytochrome P450 2C9 (P11712 whole entry): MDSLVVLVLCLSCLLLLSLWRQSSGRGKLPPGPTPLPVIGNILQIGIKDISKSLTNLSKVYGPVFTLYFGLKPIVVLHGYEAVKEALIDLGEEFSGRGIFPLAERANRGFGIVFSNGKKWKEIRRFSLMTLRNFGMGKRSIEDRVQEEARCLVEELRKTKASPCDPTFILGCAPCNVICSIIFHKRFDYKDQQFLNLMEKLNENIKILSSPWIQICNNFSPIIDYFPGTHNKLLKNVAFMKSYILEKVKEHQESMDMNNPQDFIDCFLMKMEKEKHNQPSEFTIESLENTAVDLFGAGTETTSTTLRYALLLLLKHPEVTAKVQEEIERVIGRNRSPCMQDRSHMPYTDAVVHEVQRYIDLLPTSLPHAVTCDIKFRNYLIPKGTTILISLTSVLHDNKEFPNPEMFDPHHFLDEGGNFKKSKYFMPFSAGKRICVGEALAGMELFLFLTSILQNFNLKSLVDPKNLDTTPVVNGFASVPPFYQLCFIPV
Chain of Cytochrome P450 2D6 (P10635 whole entry): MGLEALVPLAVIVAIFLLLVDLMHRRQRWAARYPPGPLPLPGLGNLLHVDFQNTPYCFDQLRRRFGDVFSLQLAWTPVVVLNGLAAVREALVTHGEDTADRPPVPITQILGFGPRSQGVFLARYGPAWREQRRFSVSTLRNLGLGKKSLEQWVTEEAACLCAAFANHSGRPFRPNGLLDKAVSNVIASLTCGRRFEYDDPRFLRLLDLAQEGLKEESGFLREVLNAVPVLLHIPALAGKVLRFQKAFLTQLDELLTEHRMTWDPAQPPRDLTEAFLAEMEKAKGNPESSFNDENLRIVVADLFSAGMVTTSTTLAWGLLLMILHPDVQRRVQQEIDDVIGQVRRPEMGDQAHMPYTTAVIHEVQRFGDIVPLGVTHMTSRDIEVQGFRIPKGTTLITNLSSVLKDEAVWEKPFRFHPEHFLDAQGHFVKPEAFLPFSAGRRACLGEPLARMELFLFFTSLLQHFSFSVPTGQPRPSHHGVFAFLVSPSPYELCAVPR
Chain of Cytochrome P450 3A4 (P08684 whole entry): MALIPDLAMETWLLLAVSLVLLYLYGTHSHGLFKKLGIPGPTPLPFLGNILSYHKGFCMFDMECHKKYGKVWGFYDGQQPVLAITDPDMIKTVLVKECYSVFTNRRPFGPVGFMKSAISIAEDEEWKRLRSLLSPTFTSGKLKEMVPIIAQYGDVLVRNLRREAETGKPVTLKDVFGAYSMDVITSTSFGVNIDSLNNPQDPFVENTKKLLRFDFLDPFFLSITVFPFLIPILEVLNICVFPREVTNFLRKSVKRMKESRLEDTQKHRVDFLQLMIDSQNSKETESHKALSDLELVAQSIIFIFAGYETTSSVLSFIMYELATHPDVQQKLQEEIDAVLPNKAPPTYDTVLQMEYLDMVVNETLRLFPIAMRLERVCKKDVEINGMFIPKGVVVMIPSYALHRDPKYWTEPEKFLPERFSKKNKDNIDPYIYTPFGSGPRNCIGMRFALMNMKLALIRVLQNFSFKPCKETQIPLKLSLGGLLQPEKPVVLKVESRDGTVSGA

OCC1C(COCc2ccccc2)CC1n1cnc2c(Cl)ncnc21 (stereo not drawn)
IC50 [1]: 14.5 µM

Cc1cc2cc(CN(CCc3ccccc3C)C(=O)NCc3ccccc3)c(=O)[nH]c2cc1C
IC50 [2]: 17.2 µM

CC(=O)N[C@H](C(=O)N[C@H](C(=O)N[C@@H](CC(C)C)C(=O)N[C@@H](Cc1ccccc1)C(=O)Cn1[nH]c(=O)c2ccccc2c1=O)[C@@H](C)OCc1ccccc1)C(C)C
inhibition [3]: 72%

CC(C)(C)NC(=O)C(c1cccnc1)N(C(=O)c1ccco1)c1ccc(C(C)(C)C)cc1 (stereo not drawn)
IC50 [4]: 9.1 µM
IC50 [5]: > 30 µM
fraction unbound [6]: 0.026
IC50 [7]: > 30 µM
fraction unbound [8]: 0.033

O=C(O)c1ccc(/N=C/c2c(O)ccc3c2C2CCCCC2O3)cc1 (stereo not drawn)
EC50 [9]: 23 µM

CCOC(=O)[C@@H]1OC1C(=O)N(CCC(N)=O)NC(=O)[C@H](Cc1ccccc1)NC(=O)[C@H](CC(C)C)NC(=O)OCc1ccccc1 (stereo partly drawn)
Ratio [10]: 1900 M/s

Cn1ccc(CN(C(=O)Cn2nnc3ccccc32)c2ccc(NC(=O)C3CC3)cc2)c1
IC50 [4]: 7.2 µM
IC50 [11]: 4.6 µM
IC50 [5]: 7.7 µM
fraction unbound [6]: 0.106
IC50 [7]: 8.4 µM
fraction unbound [8]: 0.048

O=C(Oc1cncc(Cl)c1)c1cc2ccccc2[nH]1
IC50 [12]: 0.065 µM

O=c1c(OC[C@H]2O[C@@H](O)[C@H](O)[C@@H](O)[C@H]2O)c(-c2ccc(O)c(O)c2)oc2cc(O)cc(O)c12
IC50 [13]: 42.8 µM

COC(=O)c1cc2c(O)cc(C(F)(F)F)cc2o1
IC50 [2]: 4.3 µM

O=C(CSc1nc(C2CCCCC2)nc2ccccc12)NCc1ccco1
IC50 [2]: 18.2 µM

O=C(Oc1cncc(Cl)c1)c1cccs1
IC50 [12]: 0.5 µM

CC(=O)N[C@H](C(=O)N[C@H](C(=O)N[C@@H](CC(C)C)C(=O)N[C@@H](C[C@@H]1CCNC1=O)C(=O)c1cccs1)[C@@H](C)O)C(C)C
inhibition [3]: 23%

O=C(On1nnc2ccccc21)c1ccc2[nH]ccc2c1
Ki [14]: 0.0075 µM

— ChEMBL document CHEMBL5257019, “An Overview of Severe Acute Respiratory Syndrome-Coronavirus (SARS-CoV) 3CL Protease Inhibitors: Peptidomimetics and Small Molecule Chemotherapy” (J Med Chem, 2016)
